From patent publication US11986512B2, “Compositions and methods for cancer therapy” (Thetis Pharmaceuticals LLC, priority 2021, dated 2024)

Assays:
Type in all cases: in vivo, C57BL/6J male mice
[1] = tested on: Panc2 cells; test: Panc2-H7 model with or without anti-CTLA4
Method: To further corroborate the findings with weekly dosing of bis RvE1 Mg-di-lysinate and its efficacy in combination with immune checkpoint inhibitors (ICI), another study was conducted in the Panc2-H7 model with a different ICI. A total of twenty-four (24) C57BL/6J male mice were injected subcutaneously with 1×10e6 living Panc2 cells. Once tumors reached 200 mm^3 in size based on mean tumor volume per cohort, the mice were randomized (n=8 per group) to treatment with vehicle, bis RvE1 Mg-di-lysinate (300 ug/kg, SC, Q7D) and bis RvE1 Mg-di-lysinate+anti-CTLA-4 (4 mg/kg, i.p, first dose; 2 mg/kg i.p, Q3D following the first dose).

[2] = tested on: LLC cells; test: Lewis lung carcinoma (LLC) model, with and without anti-PD1 or cisplatin; details: P<0.05
Method: (§1) A representative compound of Formula IV, RvE1 magnesium dilysinate, was tested for efficacy in several mouse models of cancer, including the Panc2-H7 model of pancreatic cancer, the Lewis lung carcinoma (LLC) model, the MC38 model of colorectal cancer, and the B16F10 model of melanoma. These models are well established, highly tumorigenic syngeneic models in which murine cancer cell lines are injected subcutaneously (SC) into the dorsum of C57BL/6J mice. If left untreated, these tumors grow rapidly and lead to death or euthanasia, per protocol. As detailed below in Examples 1-9 and the accompanying figures, bis RvE1 Mg-di-lysinate (Compound 1) was unexpectedly effective as an anti-cancer agent in each of these model systems when administered in a less than daily (LTD) dosing regimen. […] Without being bound by any theory, the surprising efficacy of LTD dosing of resolvins in the cancer model systems described here may be the result of durable effects on the tumor microenvironment including changes in immune cell phenotype, vascularization, stromal phenotype, and antigen presentation, as well as durable effects on the T-cell compartment such as T-cell priming and increased tumor-infiltrating lymphocytes.
To expand our understanding of bis RvE1 Mg-di-lysinate as a cancer therapy that could be used in combination with other cancer therapies including immune checkpoint inhibitors, bis RvE1 Mg-di-lysinate monotherapy and in combination either anti-PD1 or cisplatin was investigated in the LLC model of non-small cell lung cancer, which is a model known to unresponsive to anti-PD1 therapy and moderately responsive to cisplatin. Yu et al., J Exp Clin Cancer Res. 2010; 29(1):46; Lechner et al., J Immunother. 2013; 36(9):477-489. A total of forty (40) C57BL/6J male mice were injected subcutaneously with 1×10e6 living LLC cells. […] In addition, bis RvE1 Mg-di-lysinate was evaluated in combination with anti-PD1 or cisplatin. […]

[3] = tested on: Panc2-H7 cells; test: Panc2-H7 model of pancreatic cancer, with and without anti-PD1
Method: as §1
Over the last two decades, research on checkpoint inhibitors, including anti-PD(L)1 and anti-CTLA4, has focused on T-cells as a major therapeutic target. Waldman et al., Nat Rev Immunol. 2020; 20(11):651-668. In general, the response to treatment with immune checkpoint inhibitors requires the presence of CD4+ and CD8+ T cells in the tumor microenvironment. Li et al., Biochim Biophys Acta Rev Cancer. 2020; 1874(2):188439. […] Chiurchiu et al., Sci. Transl. Med. 2016; 8:353ra111; Mizraji et al., Front Immunol. 2018; 9:785; Oner et al., Front Immunol. 2021; 12:637983. In addition, resolvins can enhance the de novo generation and function of immunosuppressive T regulatory cells, which are associated with cancer progression and resistance to immune checkpoint inhibitors. Alvarez et al., Front Immunol. 2021; 12:664756; Togashi et al., Nat Rev Clin Oncol 2019; 16, 356-371. […]

[4] = tested on: KPC cells; test: Orthotopic KPC model of pancreatic cancer, survival
Method: To expand our understanding of less than daily (LTD) dosing of bis RvE1 Mg-di-lysinate as a cancer therapy that could be used in combination with chemotherapy, bis RvE1 Mg-di-lysinate (Compound 1) was investigated in the orthotopic KPC model of pancreatic cancer. A total of fifteen (15) C57BL/6J male mice were implanted orthotopically with 5×10e5 living KPC cells into the pancreas. The mice were randomized (n=7-8) to treatment with bis RvE1 Mg-di-lysinate (300 ug/kg, SC, Q6D) with or without gemcitabine (50 mg/kg, IP, Q3D, up to 6 doses) one day after tumor cell implantation.

## CC[C@@H](O)/C=C/C=C\C[C@@H](O)/C=C/C=C/C=C\[C@@H](O)CCCC(=O)O [bis RvE1 Mg-di-lysinate]
[1]; bis RvE1 Mg-di-lysinate 300 ug/kg SC Q7D + anti-CTLA-4 (4 mg/kg i.p first dose, 2 mg/kg i.p Q3D), p<0.001
  tumor volume over time: significant inhibition related to both placebo and bis RvE1 Mg-di-lysinate alone
[1]; monotherapy, 300 ug/kg, SC, Q7D
  tumor volume over time: significant inhibition as monotherapy compared to placebo
[2]; bis RvE1 Mg-di-lysinate 30 ug/kg SC QD in combination with anti-PD1 8 mg/kg IP Q3D
  tumor volume (Day 11 vs Day 0): reduced tumor volume compared to placebo and cisplatin and anti-PD1 alone
[2]; bis RvE1 Mg-di-lysinate 30 ug/kg SC QD in combination with cisplatin 5 mg/kg i.p Q5D
  tumor volume (Day 11 vs Day 0): reduced tumor volume compared to placebo and cisplatin and anti-PD1 alone
[3]; double combination: bis RvE1 Mg-di-lysinate 30 ug/kg SC plus anti-PD1 8 mg/kg IP Q3D, p<0.001 vs placebo and monotherapy groups
  tumor growth: significantly inhibited tumor growth relative to control
[3]; monotherapy, 30 ug/kg, subcutaneous injection
  anti-cancer effect (tumor volume, Day 15 vs Day 0): did not have a significant anti-cancer effect
[3]; triple combination of bis RvE1 Mg-di-lysinate, anti-PD1 and gemcitabine
  tumor growth: significantly inhibited tumor growth relative to control
[4]; bis RvE1 Mg-di-lysinate 300 ug/kg SC Q6D in combination with gemcitabine 50 mg/kg IP Q3D up to 6 doses
  mean survival: 129 days
[4]; bis RvE1 Mg-di-lysinate + gemcitabine combination group, three of the seven mice
  mice alive as of the last observation (day 250): 43%
[4]; bis RvE1 Mg-di-lysinate + gemcitabine, p<0.05
  increase in survival, combination versus gemcitabine monotherapy: four-fold increase in survival
